Tests used:
Assay type in all cases: in vivo
[1] = test system: barnyardgrass (Echinochloa crus-galli); test: Test A preemergence, barnyardgrass; conditions: 0 to 100 scale (0 no effect, 100 complete control)
Method in brief: (§1)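 Pre: directed soil spray after sowing in loam/sand. Post: seedlings at 1–2 leaf stage, 2–10 cm. Vehicle: non-phytotoxic solvent mix + surfactant. Greenhouse ~10 d; visual injury 0–100 vs untreated controls.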

[2] = test system: large crabgrass (Digitaria sanguinalis); test: Test A preemergence, large crabgrass; conditions: 0 to 100 scale (0 no effect, 100 complete control)
Method in brief: as §1

[3] = test system: giant foxtail (Setaria faberi); test: Test A preemergence, giant foxtail; conditions: 0 to 100 scale (0 no effect, 100 complete control)
Method in brief: as §1

[4] = test system: morningglory (Ipomoea spp.); test: Test A preemergence, morningglory; conditions: 0 to 100 scale (0 no effect, 100 complete control)
Method in brief: as §1

[5] = test system: pigweed (Amaranthus retroflexus); test: Test A preemergence, pigweed; conditions: 0 to 100 scale (0 no effect, 100 complete control)
Method in brief: as §1

[6] = test system: velvetleaf (Abutilon theophrasti); test: Test A preemergence, velvetleaf; conditions: 0 to 100 scale (0 no effect, 100 complete control)
Method in brief: as §1

[7] = test system: wheat (Triticum aestivum); test: Test A preemergence, wheat; conditions: 0 to 100 scale (0 no effect, 100 complete control)
Method in brief: as §1

[8] = test system: corn (Zea mays); test: Test A preemergence, corn; conditions: 0 to 100 scale (0 no effect, 100 complete control)
Method in brief: as §1

[9] = test system: barnyardgrass (Echinochloa crus-galli); test: Test A postemergence, barnyardgrass; conditions: 0 to 100 scale (0 no effect, 100 complete control)
Method in brief: as §1

[10] = test system: large crabgrass (Digitaria sanguinalis); test: Test A postemergence, large crabgrass; conditions: 0 to 100 scale (0 no effect, 100 complete control)
Method in brief: as §1

[11] = test system: giant foxtail (Setaria faberi); test: Test A postemergence, giant foxtail; conditions: 0 to 100 scale (0 no effect, 100 complete control)
Method in brief: as §1

[12] = test system: morningglory (Ipomoea spp.); test: Test A postemergence, morningglory; conditions: 0 to 100 scale (0 no effect, 100 complete control)
Method in brief: as §1

[13] = test system: pigweed (Amaranthus retroflexus); test: Test A postemergence, pigweed; conditions: 0 to 100 scale (0 no effect, 100 complete control)
Method in brief: as §1

[14] = test system: velvetleaf (Abutilon theophrasti); test: Test A postemergence, velvetleaf; conditions: 0 to 100 scale (0 no effect, 100 complete control)
Method in brief: as §1

[15] = test system: wheat (Triticum aestivum); test: Test A postemergence, wheat; conditions: 0 to 100 scale (0 no effect, 100 complete control)
Method in brief: as §1

[16] = test system: corn (Zea mays); test: Test A postemergence, corn; conditions: 0 to 100 scale (0 no effect, 100 complete control)
Method in brief: as §1

[17] = test system: rice (Oryza sativa); test: Test B flooded paddy test, rice; conditions: Flood, scale 0 to 100
Method in brief: (§2)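 Compounds were added directly to paddy water over 2-leaf-stage plants in pots flooded 3 cm above soil, water depth maintained. Visual injury scored against controls after 13 to 15 days in greenhouse, 0 (none) to 100 (complete control); dash indicates no result.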

[18] = test system: umbrella sedge (Cyperus difformis); test: Test B flooded paddy test, umbrella sedge; conditions: Flood, scale 0 to 100
Method in brief: as §2

[19] = test system: ducksalad (Heteranthera limosa); test: Test B flooded paddy test, ducksalad; conditions: Flood, scale 0 to 100
Method in brief: as §2

[20] = test system: barnyardgrass (Echinochloa crus-galli); test: Test B flooded paddy test, barnyardgrass; conditions: Flood
Method in brief: as §2

[21] = 250 g ai/ha, scale 0 to 100 (0 no effect, 100 complete control)

## CC1(C)CC(S(=O)(=O)Cc2c(C(F)(F)F)nc3ccon3c2=O)=NO1 [Compound 42]
[1]; 125 g ai/ha
  Plant response rating, Barnyardgrass: 30
[1]; 500 g ai/ha
  Plant response rating, Barnyardgrass: 80
[2]; 125 g ai/ha
  Plant response rating, Crabgrass, Large: 50
[2]; 500 g ai/ha
  Plant response rating, Crabgrass, Large: 80
[3]; 125 g ai/ha
  Plant response rating, Foxtail, Giant: 60
[3]; 500 g ai/ha
  Plant response rating, Foxtail, Giant: 90
[4]; 125 g ai/ha
  Plant response rating, Morningglory: 0
[4]; 500 g ai/ha
  Plant response rating, Morningglory: 0
[5]; 125 g ai/ha
  Plant response rating, Pigweed: 0
[5]; 500 g ai/ha
  Plant response rating, Pigweed: 30
[6]; 125 g ai/ha
  Plant response rating, Velvetleaf: 0
[6]; 500 g ai/ha
  Plant response rating, Velvetleaf: 0
[7]; 125 g ai/ha
  Plant response rating, Wheat: 0
[7]; 500 g ai/ha
  Plant response rating, Wheat: 0
[8]; 125 g ai/ha
  Plant response rating, Corn: 0
[8]; 500 g ai/ha
  Plant response rating, Corn: 0
[9]; 125 g ai/ha
  Plant response rating, Barnyardgrass: 70
[9]; 500 g ai/ha
  Plant response rating, Barnyardgrass: 80
[10]; 125 g ai/ha
  Plant response rating, Crabgrass, Large: 50
[10]; 500 g ai/ha
  Plant response rating, Crabgrass, Large: 70
[11]; 125 g ai/ha
  Plant response rating, Foxtail, Giant: 60
[11]; 500 g ai/ha
  Plant response rating, Foxtail, Giant: 80
[12]; 125 g ai/ha
  Plant response rating, Morningglory: 0
[12]; 500 g ai/ha
  Plant response rating, Morningglory: 0
[13]; 125 g ai/ha
  Plant response rating, Pigweed: 0
[13]; 500 g ai/ha
  Plant response rating, Pigweed: 10
[14]; 125 g ai/ha
  Plant response rating, Velvetleaf: 0
[14]; 500 g ai/ha
  Plant response rating, Velvetleaf: 0
[15]; 125 g ai/ha
  Plant response rating, Wheat: 0
[15]; 500 g ai/ha
  Plant response rating, Wheat: 20
[16]; 125 g ai/ha
  Plant response rating, Corn: 0
[16]; 500 g ai/ha
  Plant response rating, Corn: 0
[17]; 31 g ai/ha
  Plant response rating, Rice: 0
[17]; 62 g ai/ha
  Plant response rating, Rice: 0
[17]; 125 g ai/ha
  Plant response rating, Rice: 0
[17]; 250 g ai/ha
  Plant response rating, Rice: 0
[18]; 31 g ai/ha
  Plant response rating, Sedge, Umbrella: 0
[18]; 62 g ai/ha
  Plant response rating, Sedge, Umbrella: 0
[18]; 125 g ai/ha
  Plant response rating, Sedge, Umbrella: 0
[18]; 250 g ai/ha
  Plant response rating, Sedge, Umbrella: 0
[19]; 31 g ai/ha
  Plant response rating, Ducksalad: 0
[19]; 62 g ai/ha
  Plant response rating, Ducksalad: 0
[19]; 125 g ai/ha
  Plant response rating, Ducksalad: 0
[19]; 250 g ai/ha
  Plant response rating, Ducksalad: 0
[20]; 31 g ai/ha, scale 0 to 100
  Plant response rating, Barnyardgrass: 0
[20]; 62 g ai/ha, scale 0 to 100
  Plant response rating, Barnyardgrass: 0
[20]; 125 g ai/ha, scale 0 to 100
  Plant response rating, Barnyardgrass: 0
[20]; [21]
  Plant response rating, Barnyardgrass: 0

## CCn1c(=O)c(C[S+]([O-])C2=NOC(C)(C)C2)nc2ccccc21 (centres unmarked) [Compound 29]
[1]; 125 g ai/ha
  Plant response rating, Barnyardgrass: 0
[1]; 500 g ai/ha
  Plant response rating, Barnyardgrass: 0
[2]; 125 g ai/ha
  Plant response rating, Crabgrass, Large: 0
[2]; 500 g ai/ha
  Plant response rating, Crabgrass, Large: 0
[3]; 125 g ai/ha
  Plant response rating, Foxtail, Giant: 0
[3]; 500 g ai/ha
  Plant response rating, Foxtail, Giant: 0
[4]; 125 g ai/ha
  Plant response rating, Morningglory: 0
[4]; 500 g ai/ha
  Plant response rating, Morningglory: 0
[5]; 125 g ai/ha
  Plant response rating, Pigweed: 0
[5]; 500 g ai/ha
  Plant response rating, Pigweed: 0
[6]; 125 g ai/ha
  Plant response rating, Velvetleaf: 0
[6]; 500 g ai/ha
  Plant response rating, Velvetleaf: 0
[7]; 125 g ai/ha
  Plant response rating, Wheat: 0
[7]; 500 g ai/ha
  Plant response rating, Wheat: 0
[8]; 125 g ai/ha
  Plant response rating, Corn: 0
[9]; 125 g ai/ha
  Plant response rating, Barnyardgrass: 10
[9]; 500 g ai/ha
  Plant response rating, Barnyardgrass: 20
[10]; 125 g ai/ha
  Plant response rating, Crabgrass, Large: 0
[10]; 500 g ai/ha
  Plant response rating, Crabgrass, Large: 0
[11]; 125 g ai/ha
  Plant response rating, Foxtail, Giant: 0
[11]; 500 g ai/ha
  Plant response rating, Foxtail, Giant: 0
[12]; 125 g ai/ha
  Plant response rating, Morningglory: 0
[12]; 500 g ai/ha
  Plant response rating, Morningglory: 0
[13]; 125 g ai/ha
  Plant response rating, Pigweed: 0
[13]; 500 g ai/ha
  Plant response rating, Pigweed: 0
[14]; 125 g ai/ha
  Plant response rating, Velvetleaf: 0
[14]; 500 g ai/ha
  Plant response rating, Velvetleaf: 0
[15]; 125 g ai/ha
  Plant response rating, Wheat: 0
[15]; 500 g ai/ha
  Plant response rating, Wheat: 0
[16]; 125 g ai/ha
  Plant response rating, Corn: 0
[16]; 500 g ai/ha
  Plant response rating, Corn: 0
[17]; 31 g ai/ha
  Plant response rating, Rice: 0
[17]; 62 g ai/ha
  Plant response rating, Rice: 0
[17]; 125 g ai/ha
  Plant response rating, Rice: 0
[17]; 250 g ai/ha
  Plant response rating, Rice: 0
[18]; 31 g ai/ha
  Plant response rating, Sedge, Umbrella: 0
[18]; 62 g ai/ha
  Plant response rating, Sedge, Umbrella: 0
[18]; 125 g ai/ha
  Plant response rating, Sedge, Umbrella: 0
[18]; 250 g ai/ha
  Plant response rating, Sedge, Umbrella: 0
[19]; 31 g ai/ha
  Plant response rating, Ducksalad: 0
[19]; 62 g ai/ha
  Plant response rating, Ducksalad: 0
[19]; 125 g ai/ha
  Plant response rating, Ducksalad: 0
[19]; 250 g ai/ha
  Plant response rating, Ducksalad: 20
[20]; 31 g ai/ha, scale 0 to 100
  Plant response rating, Barnyardgrass: 0
[20]; 62 g ai/ha, scale 0 to 100
  Plant response rating, Barnyardgrass: 0
[20]; 125 g ai/ha, scale 0 to 100
  Plant response rating, Barnyardgrass: 0
[20]; [21]
  Plant response rating, Barnyardgrass: 0

— patent publication US20100099561A1, “HETEROBICYCLIC ALKYLTHIO-BRIDGED ISOXAZOLINES” (E.I. DU PONT DE NEMOURS AND COMPANY, priority 2008, published 2010)
